Assay results from the supplement of paper PMC11781733.
Counter-ions that a name gives are not always drawn.

Experiments:
Settings in all cases: exposure time: 15 min to 3 h acute
Dugesia japonica [1] = test: crawl-out incidence (% planarians); higher = higher incidence or increase relative to vehicle control
Procedure: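 Adult asexual Dugesia japonica planarians (1 per well, 48-well plate, n=24 over technical triplicates) were exposed acutely (15 min to 3 h) to each compound (0.5% DMSO or water vehicle) and screened on a robotic platform for crawl-out, stickiness, body shape, phototaxis, noxious-heat scrunching and locomotion endpoints. Binary endpoints are incidence rate x100. Continuous endpoints are the median response normalised to the plate vehicle median, as % change or difference. Negative incidences after vehicle subtraction were set to 0.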

Dugesia japonica [2] = test: corkscrew incidence (% planarians (vehicle-normalised)); higher = higher incidence or increase relative to vehicle control
Procedure, shortened: (§1)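 In sealed 48-well plates holding one D. japonica planarian per well in 200 μL, worms fasted 5–7 days were exposed to at least 5 concentrations and screened within 15 minutes–3 hours. Contraction, C-shape, corkscrew and hyperkinesis were scored manually by a blinded researcher, and crawled-out worms were dropped. For each shape or for any abnormal shape, incidence is given ×100 after normalisation to vehicle controls on the plate, with negatives at 0.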

Dugesia japonica [3] = test: loss of heat-induced scrunching incidence (% planarians (vehicle-normalised)); higher = higher incidence or increase relative to vehicle control
Procedure, shortened: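 D. japonica planarians (fasted 5–7 days), one per well in 200 μL in sealed 48-well plates, were exposed to at least 5 concentrations (n = 24 per concentration, technical triplicates). They were tested within 15 minutes–3 hours for scrunching in response to a noxious heat stimulus; worms that crawled out were excluded. The value is the incidence ×100 of worms without scrunching, normalised to in-plate vehicle controls, with negatives set to 0.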

Dugesia japonica [4] = test: resting fraction in blue light vs vehicle (difference in fraction x100 vs vehicle); higher = higher incidence or increase relative to vehicle control
Procedure, shortened: (§2)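 Resting fraction in the dark or under blue light was measured by automated tracking of intact, fasted Dugesia japonica, one per well of a 48-well plate in 200 μL. Worms were tested 15 min to 3 h after exposure in 0.5% DMSO or water vehicle. Eight worms per concentration per plate were run in technical triplicate (n = 24). The plate's vehicle median was subtracted from each worm, the difference was multiplied by 100, and the median is reported; worms that crawled out were excluded.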

Dugesia japonica [5] = test: stickiness incidence (% planarians (vehicle-normalised)); higher = higher incidence or increase relative to vehicle control
Procedure, shortened: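 In the Stickiness assay, fasted Dugesia japonica planarians were each placed in one well of a sealed 48-well plate containing 200 μL of solution, with 0.5% DMSO or water as vehicle. Testing took place 15 min–3 h after exposure to half- or quarter-log concentration series. Stickiness was recorded as a binary endpoint, and its incidence was expressed relative to in-plate vehicle incidence after pooling technical triplicates and removing worms that crawled out. Negative values were set to 0 and all values were multiplied by 100.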

Dugesia japonica [6] = test: speed in dark vs vehicle (% change vs vehicle); higher = higher incidence or increase relative to vehicle control
Procedure: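 Adult asexual Dugesia japonica planarians (1 per well, 48-well plate, n=24 over technical triplicates) were exposed acutely (15 min to 3 h) to each compound (0.5% DMSO or water vehicle) and screened on a robotic platform for crawl-out, stickiness, body shape, phototaxis, noxious-heat scrunching and locomotion endpoints. Binary endpoints are incidence rate x100 normalised to in-plate vehicle controls. Continuous endpoints are the median response normalised to the plate vehicle median, as % change or difference. Negative incidences after vehicle subtraction were set to 0.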

Dugesia japonica [7] = test: contracted body shape incidence (% planarians (vehicle-normalised)); higher = higher incidence or increase relative to vehicle control
Procedure, shortened: as §1

Dugesia japonica [8] = test: pharynx extrusion incidence (% planarians (vehicle-normalised)); higher = higher incidence or increase relative to vehicle control
Procedure, shortened: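 Pharynx extrusion incidence in intact, fasted Dugesia japonica was scored blind and by hand as a body-shape category, then normalised to vehicle controls from the same plate. Each worm was held alone in a 48-well plate well containing 200 μL and tested 15 min to 3 h after exposure, with 0.5% DMSO or water as vehicle. Eight worms per concentration per plate were used in technical triplicate (n = 24). Negatives were set to 0, and worms that crawled out were excluded.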

Dugesia japonica [9] = test: total locomotor bursts minus vehicle (bursts difference vs vehicle); higher = higher incidence or increase relative to vehicle control
Procedure, shortened: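 Fasted Dugesia japonica planarians, one per well of a sealed 48-well plate in 200 μL solution, were tested 15 min–3 h after exposure to half- or quarter-log concentration series. The vehicle was 0.5% DMSO or water. Total locomotor bursts, an unstimulated behaviour, came from image-based object tracking, with technical triplicates totalling n = 24. Each planarian's value had the plate vehicle-control median subtracted, without ×100 scaling. The value is the median normalised response, and crawled-out worms were excluded.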

Dugesia japonica [10] = test: anxiety (time in outer well region) vs vehicle (% change vs vehicle); higher = higher incidence or increase relative to vehicle control
Procedure, shortened: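 Sealed 48-well plates held one D. japonica planarian per well in 200 μL, with worms fasted 5–7 days beforehand and tested at at least 5 concentrations (n = 24 per concentration). Screening took place within 15 minutes–3 hours. Using object tracking in MATLAB or Python, time spent in the outer part of the well was recorded, and worms that crawled out were excluded. Responses were divided by, or reduced by, the plate vehicle median and multiplied by 100, and the median is reported.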

Dugesia japonica [11] = test: speed second 30 s blue light vs vehicle (% change vs vehicle); higher = higher incidence or increase relative to vehicle control
Procedure, shortened: (§3)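 Each value is the median percent change in crawling speed, with each worm normalised to the median of the vehicle worms on its plate. Intact, fasted Dugesia japonica were tracked automatically one per well in 48-well plates holding 200 μL, either in the dark or during blue-light periods. Testing ran from 15 min to 3 h after exposure, with 0.5% DMSO or water as vehicle. Eight worms per concentration per plate were run in technical triplicate (n = 24), and any worm that crawled out of the liquid was excluded.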

Dugesia japonica [12] = test: hyperkinesis incidence (% planarians (vehicle-normalised)); higher = higher incidence or increase relative to vehicle control
Procedure, shortened: as §1

Dugesia japonica [13] = test: any abnormal body shape incidence (% planarians (vehicle-normalised)); higher = higher incidence or increase relative to vehicle control
Procedure, shortened: as §1

Dugesia japonica [14] = test: loss of phototaxis incidence (% planarians (vehicle-normalised)); higher = higher incidence or increase relative to vehicle control
Procedure, shortened: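 Loss of phototaxis was scored as a yes/no endpoint in intact, fasted Dugesia japonica using automated object tracking. Each worm was held alone in a well of a 48-well plate in 200 μL and tested 15 min to 3 h after exposure in 0.5% DMSO or water vehicle. Eight worms per concentration per plate were run in technical triplicate (n = 24), and worms that crawled out were excluded. The incidence rate ×100 was normalised to in-plate vehicle controls, with negative values set to 0.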

Dugesia japonica [15] = test: speed first 30 s blue light vs vehicle (% change vs vehicle); higher = higher incidence or increase relative to vehicle control
Procedure, shortened: as §3

Dugesia japonica [16] = test: resting fraction in dark vs vehicle (difference in fraction x100 vs vehicle); higher = higher incidence or increase relative to vehicle control
Procedure, shortened: as §2

Dugesia japonica [17] = test: C-shape incidence (% planarians (vehicle-normalised)); higher = higher incidence or increase relative to vehicle control
Procedure, shortened: as §1

Dugesia japonica [18] = test: noxious heat displacement strength vs vehicle (% change vs vehicle); higher = higher incidence or increase relative to vehicle control
Procedure, shortened: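 Intact, fasted Dugesia japonica were held one per well in 48-well plates containing 200 μL and tested 15 min to 3 h after exposure in 0.5% DMSO or water vehicle. The scrunching assay with automated object tracking gave displacement strength under noxious heat, reported as the median percent change after normalising each worm to its plate's vehicle median. Worms that crawled out were excluded.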

CNCC[C@H](Oc1cccc2ccccc12)c1cccs1 [s-duloxetine] (1 µM)
crawl-out incidence (Dugesia japonica [1]): 4.17
corkscrew incidence (Dugesia japonica [2]): 0
loss of heat-induced scrunching incidence (Dugesia japonica [3]): 13
resting fraction in blue light (Dugesia japonica [4]): 9.83
stickiness incidence (Dugesia japonica [5]): 13
speed in dark (Dugesia japonica [6]): 13.6
contracted body shape incidence (Dugesia japonica [7]): 0
pharynx extrusion incidence (Dugesia japonica [8]): 0
total locomotor bursts minus vehicle (Dugesia japonica [9]): 7
anxiety (Dugesia japonica [10]): 12.8
speed second 30 s blue light (Dugesia japonica [11]): -13.5
hyperkinesis incidence (Dugesia japonica [12]): 0
any abnormal body shape incidence (Dugesia japonica [13]): 0
loss of phototaxis incidence (Dugesia japonica [14]): 17.4
speed first 30 s blue light (Dugesia japonica [15]): 34.6
resting fraction in dark (Dugesia japonica [16]): -7.56
C-shape incidence (Dugesia japonica [17]): 0
noxious heat displacement strength (Dugesia japonica [18]): -35.3

CN(C)CCC[C@@]1(c2ccc(F)cc2)OCc2cc(C#N)ccc21 [escitalopram] (10 µM)
crawl-out incidence (Dugesia japonica [1]): 0
corkscrew incidence (Dugesia japonica [2]): 0
loss of heat-induced scrunching incidence (Dugesia japonica [3]): 8.33
resting fraction in blue light (Dugesia japonica [4]): 0
stickiness incidence (Dugesia japonica [5]): 16.7
speed in dark (Dugesia japonica [6]): 22.6
contracted body shape incidence (Dugesia japonica [7]): 0
pharynx extrusion incidence (Dugesia japonica [8]): 0
total locomotor bursts minus vehicle (Dugesia japonica [9]): 0.5
anxiety (Dugesia japonica [10]): 1.04
speed second 30 s blue light (Dugesia japonica [11]): 16
hyperkinesis incidence (Dugesia japonica [12]): 0
any abnormal body shape incidence (Dugesia japonica [13]): 0
loss of phototaxis incidence (Dugesia japonica [14]): ≤ 0
speed first 30 s blue light (Dugesia japonica [15]): 23.1
resting fraction in dark (Dugesia japonica [16]): -4.34
C-shape incidence (Dugesia japonica [17]): 0
noxious heat displacement strength (Dugesia japonica [18]): -2.51

Cc1ncc2n1-c1ccc(Cl)cc1C(c1ccccc1F)=NC2 [midazolam] (10 µM)
crawl-out incidence (Dugesia japonica [1]): 0
corkscrew incidence (Dugesia japonica [2]): 0
loss of heat-induced scrunching incidence (Dugesia japonica [3]): ≤ 0
resting fraction in blue light (Dugesia japonica [4]): -0.5
stickiness incidence (Dugesia japonica [5]): ≤ 0
speed in dark (Dugesia japonica [6]): -4.66
contracted body shape incidence (Dugesia japonica [7]): 0
pharynx extrusion incidence (Dugesia japonica [8]): 0
total locomotor bursts minus vehicle (Dugesia japonica [9]): -1.5
anxiety (Dugesia japonica [10]): -4.77
speed second 30 s blue light (Dugesia japonica [11]): 6.88
hyperkinesis incidence (Dugesia japonica [12]): 8.33
any abnormal body shape incidence (Dugesia japonica [13]): 8.33
loss of phototaxis incidence (Dugesia japonica [14]): ≤ 0
speed first 30 s blue light (Dugesia japonica [15]): 12.7
resting fraction in dark (Dugesia japonica [16]): 0.667
C-shape incidence (Dugesia japonica [17]): 0
noxious heat displacement strength (Dugesia japonica [18]): -18.8

CCCCNc1c(C(=O)OCC)c(C)nc2c1cnn2CC [tracazolate hydrochloride] (1 µM)
crawl-out incidence (Dugesia japonica [1]): 0
corkscrew incidence (Dugesia japonica [2]): 0
loss of heat-induced scrunching incidence (Dugesia japonica [3]): ≤ 0
resting fraction in blue light (Dugesia japonica [4]): 0.18
stickiness incidence (Dugesia japonica [5]): 8.33
speed in dark (Dugesia japonica [6]): -16.4
contracted body shape incidence (Dugesia japonica [7]): 0
pharynx extrusion incidence (Dugesia japonica [8]): 0
total locomotor bursts minus vehicle (Dugesia japonica [9]): 3.25
anxiety (Dugesia japonica [10]): -16.4
speed second 30 s blue light (Dugesia japonica [11]): -8.21
hyperkinesis incidence (Dugesia japonica [12]): 0
any abnormal body shape incidence (Dugesia japonica [13]): 0
loss of phototaxis incidence (Dugesia japonica [14]): ≤ 0
speed first 30 s blue light (Dugesia japonica [15]): -20
resting fraction in dark (Dugesia japonica [16]): 1.34
C-shape incidence (Dugesia japonica [17]): 0
noxious heat displacement strength (Dugesia japonica [18]): -26.2
